Reference: ChEMBL document CHEMBL5154649, “Design, synthesis, and characterization of novel aminoalcohol quinolines with strong in vitro antimalarial activity” (Eur J Med Chem, 2022)
Activity calls are given as the source filed them. The rule behind the calls is not given here.

Columns and labels:
[1] = system: Plasmodium berghei; assay: Antimalarial activity against Plasmodium berghei ANKA infected in BALB/c mouse assessed as time required for clearance of blood parasites at 9 mg/kg, ip administered daily for 5 days; assay type: functional; conditions: time 5 day
[2] = Metabolic stability in rat liver microsomes assessed as intrinsic clearance at 0.5 uM incubated for 30 mins by LC-MS/MS analysis; assay type: ADME, Microsome; conditions: read-out: CLH
[3] = Apparent permeability across apical to basolateral side in human Caco-2/TC7 cells at 20 uM incubated for 2 hrs by LC-MS/MS analysis; assay type: ADME, cell-based, Caco2/TC7
[4] = system: Plasmodium falciparum; assay: Antiplasmodial activity against CQ-susceptible Plasmodium falciparum 3D7 infected in human erythrocytes assessed as inhibition of parasite growth measured after 72 hrs by HRP2-ELISA; assay type: functional, organism-based; conditions: 3D7, Erythrocyte
[5] = Metabolic stability in mouse liver microsomes assessed as intrinsic clearance at 0.5 uM incubated for 30 mins by LC-MS/MS analysis; assay type: ADME, Microsome; conditions: read-out: CLH
[6] = Metabolic stability in human hepatocytes assessed as intrinsic clearance incubated up to 24 hrs measured per 10^6 cells by LC-MS/MS analysis; assay type: ADME, cell-based, Hepatocyte
[7] = Metabolic stability in human liver microsomes assessed as intrinsic clearance at 0.5 uM incubated for 30 mins by LC-MS/MS analysis; assay type: ADME, Microsome; conditions: read-out: CLH
[8] = system: Plasmodium falciparum; assay: Antiplasmodial activity CQ-resistant Plasmodium falciparum W2 infected in human erythrocytes assessed as inhibition of parasite growth measured after 72 hrs by HRP2-ELISA; assay type: functional, organism-based; conditions: W2, Erythrocyte
[9] = Apparent permeability across apical to basolateral side in human Caco-2/TC7 cells assessed as drug recovery at 20 uM incubated for 2 hrs by LC-MS/MS analysis; assay type: ADME, cell-based, Caco2/TC7; conditions: read-out: Drug recovery
[10] = system: Plasmodium falciparum; assay: Antiplasmodial activity against CQ-resistant Plasmodium falciparum W2 assessed as inhibition of parasite growth measured after 48 hrs by SYBR Green 1 dye based fluorescence assay; assay type: functional, organism-based; conditions: W2, 48 h
[11] = system: Plasmodium falciparum; assay: Selectivity index, ratio of IC50 for antiplasmodial activity against CQ-susceptible Plasmodium falciparum 3D7 to IC50 for antiplasmodial activity CQ-resistant Plasmodium falciparum W2 by HRP2-ELISA; assay type: functional
[12] = system: Plasmodium falciparum; assay: Selectivity index, ratio of IC50 for antiplasmodial activity against CQ-susceptible Plasmodium falciparum 3D7 to IC50 for antiplasmodial activity against CQ-resistant Plasmodium falciparum W2 by SYBR Green 1 dye based fluorescence assay; assay type: functional
[13] = Selectivity index, ratio of IC50 for cytotoxicity against chinese hamster CHO cells to IC50 for antiplasmodial activity against Plasmodium falciparum 3D7 infected in human erythrocytes by HRP2-ELISA; assay type: toxicity, cell-based; conditions: read-out: Ratio IC50
[14] = Cytotoxicity against human THP-1 cells assessed as reduction in cell viability incubated for 72 hrs by MTT assay; assay type: toxicity, cell-based
[15] = Selectivity index, ratio of IC50 for cytotoxicity against human THP-1 cells to IC50 for antiplasmodial activity against Plasmodium falciparum 3D7 infected in human erythrocytes by HRP2-ELISA; assay type: toxicity, cell-based; conditions: read-out: Ratio IC50
[16] = Selectivity index, ratio of IC50 for human HFF cells to IC50 for antiplasmodial activity against Plasmodium falciparum 3D7 infected in human erythrocytes by HRP2-ELISA; assay type: toxicity, cell-based; conditions: read-out: Ratio IC50
[17] = Cytotoxicity against human HFF cells assessed as reduction in cell viability incubated for 72 hrs by MTT assay; assay type: toxicity, cell-based
[18] = Selectivity index, ratio of IC50 for cytotoxicity against human HepG2 cells to IC50 for antiplasmodial activity against Plasmodium falciparum 3D7 infected in human erythrocytes by HRP2-ELISA; assay type: toxicity, cell-based; conditions: read-out: Ratio IC50
[19] = Cytotoxicity against Chinese hamster CHO cells assessed as reduction in cell viability incubated for 24 hrs by MTT assay; assay type: toxicity, cell-based, Cricetulus griseus
[20] = system: Plasmodium falciparum; assay: Antiplasmodial activity against CQ-susceptible Plasmodium falciparum 3D7 assessed as inhibition of parasite growth measured after 48 hrs by SYBR Green 1 dye based fluorescence assay; assay type: functional, organism-based; conditions: 3D7, 48 h
[21] = Cytotoxicity against human HepG2 cells assessed as reduction in cell viability incubated for 72 hrs by MTT assay; assay type: toxicity, cell-based
[22] = molecular target: Voltage-gated inwardly rectifying potassium channel KCNH2 (Homo sapiens, UniProt Q12809); assay: Inhibition of hERG channel expressed in CHO cells at holding potential of -80 mV by whole cell patch clamp method; assay type: toxicity, cell-based
[23] = system: Plasmodium berghei; assay: Antimalarial activity against Plasmodium berghei ANKA infected in BALB/c mouse assessed as increase in animal survival rate at 9 mg/kg, ip administered daily for 5 days and measured for 30 days; assay type: functional, organism-based; conditions: time 30.0 day

Chain of Voltage-gated inwardly rectifying potassium channel KCNH2 (Q12809 whole entry): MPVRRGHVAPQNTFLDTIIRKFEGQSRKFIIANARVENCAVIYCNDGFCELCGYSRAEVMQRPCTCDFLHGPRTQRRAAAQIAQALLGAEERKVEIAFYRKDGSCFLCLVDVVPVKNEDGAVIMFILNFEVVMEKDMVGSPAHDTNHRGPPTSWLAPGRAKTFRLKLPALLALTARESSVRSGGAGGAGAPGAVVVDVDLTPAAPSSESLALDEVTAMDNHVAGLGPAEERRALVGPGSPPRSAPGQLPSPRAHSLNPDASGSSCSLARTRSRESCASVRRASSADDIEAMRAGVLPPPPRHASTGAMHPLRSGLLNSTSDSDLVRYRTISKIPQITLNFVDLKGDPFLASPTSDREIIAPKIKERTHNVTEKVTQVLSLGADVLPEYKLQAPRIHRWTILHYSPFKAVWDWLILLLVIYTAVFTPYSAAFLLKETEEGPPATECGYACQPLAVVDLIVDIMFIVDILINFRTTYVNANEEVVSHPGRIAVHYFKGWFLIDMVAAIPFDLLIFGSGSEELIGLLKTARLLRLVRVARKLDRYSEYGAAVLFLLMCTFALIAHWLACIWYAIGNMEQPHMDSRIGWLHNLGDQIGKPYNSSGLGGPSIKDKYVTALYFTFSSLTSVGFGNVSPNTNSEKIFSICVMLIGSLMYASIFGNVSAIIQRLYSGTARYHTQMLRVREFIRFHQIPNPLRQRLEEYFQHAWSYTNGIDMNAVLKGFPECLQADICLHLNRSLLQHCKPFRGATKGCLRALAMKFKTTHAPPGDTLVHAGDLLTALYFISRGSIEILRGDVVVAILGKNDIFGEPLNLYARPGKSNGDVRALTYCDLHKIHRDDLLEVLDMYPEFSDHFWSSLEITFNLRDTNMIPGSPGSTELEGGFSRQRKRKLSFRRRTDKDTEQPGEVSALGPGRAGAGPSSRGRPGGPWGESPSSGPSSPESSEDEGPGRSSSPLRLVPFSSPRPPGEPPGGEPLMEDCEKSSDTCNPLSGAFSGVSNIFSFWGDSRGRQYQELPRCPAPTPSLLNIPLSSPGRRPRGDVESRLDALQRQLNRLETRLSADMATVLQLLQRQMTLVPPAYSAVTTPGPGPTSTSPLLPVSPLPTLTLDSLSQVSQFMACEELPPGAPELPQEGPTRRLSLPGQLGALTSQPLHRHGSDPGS

Structure (SMILES) | Papp A→B at 2 h, 20 µM [3] [×10⁻⁶ cm/s] | IC50 [4] [µM] | IC50 [8] [µM] | recovery at 2 h, 20 µM [9] [%] | IC50 [10] [µM] | Ratio IC50 [11] | Ratio IC50 [12] | selectivity ratio [13] | IC50 at 72 h [14] [µM] | selectivity ratio [15] | selectivity ratio [16] | IC50 at 72 h [17] [µM] | selectivity ratio [18] | IC50 at 24 h [19] [µM] | IC50 [20] [µM] | IC50 at 72 h [21] [µM] | also measured
Cl.O[C@@H](c1cc(C(F)(F)F)nc2c(C(F)(F)F)cccc12)[C@H]1CCCCN1 (relative stereo) |  |  |  |  |  |  |  |  |  |  |  |  |  |  |  |  | Time [1]: <100 h
O[C@@H](c1cc(C(F)(F)F)nc2c(C(F)(F)F)cccc12)[C@H]1CCCCN1 [(S,R)-MEFLOQUINE] | 4.5 | 0.0541 | 0.0283 | 91 | 0.0318 |  |  |  |  |  |  |  |  |  |  |  | microsomal CLint at 0.5 µM [2]: < 20 µL/min/mg; microsomal CLint at 0.5 µM [5]: < 20 µL/min/mg; CLH [6]: 0.002 mL/h; microsomal CLint at 0.5 µM [7]: < 20 µL/min/mg
O[C@H](c1cc(C(F)(F)F)nc2c(C(F)(F)F)cccc12)[C@@H]1CCCCN1 [(R,S)-MEFLOQUINE] | 4.5 |  |  | 85 |  |  |  |  |  |  |  |  |  |  |  |  | microsomal CLint at 0.5 µM [2]: < 20 µL/min/mg; microsomal CLint at 0.5 µM [5]: < 20 µL/min/mg; CLH [6]: 0.004 mL/h; microsomal CLint at 0.5 µM [7]: < 20 µL/min/mg
OC[C@@H](Cc1ccccc1)NC[C@H](O)c1cc(C(F)(F)F)nc2c(C(F)(F)F)cccc12 |  | 0.106 | 0.0638 |  | 0.0543 | 1.7 | 0.7 | 250 | 7.8 | 73 | 351 | 37.4 | 158 | 26.6 | 0.0362 | 16.8 | 
CCCCCNC[C@@H](O)c1cc(C(F)(F)F)nc2c(C(F)(F)F)cccc12 | 11.4 |  |  | 99 |  |  |  |  |  |  |  |  |  |  |  |  | IC50 [22]: 8.8 µM
O[C@@H](c1cc(C(F)(F)F)nc2c(C(F)(F)F)cccc12)[C@H]1CCCCN1 (relative stereo) |  |  |  |  |  |  |  |  |  |  |  |  |  |  |  |  | Activity [23]: Active
OC[C@H](Cc1ccccc1)NC[C@H](O)c1cc(C(F)(F)F)nc2c(C(F)(F)F)cccc12 (single isomer, unassigned) |  | 0.0748 | 0.0619 |  | 0.0033 | 1.2 | 9.4 | 470 | 9.2 | 123 | 718 | 53.7 | 303 | 35.2 | 0.0309 | 22.7 | 
O[C@H](CNCC1CC1)c1cc(C(F)(F)F)nc2c(C(F)(F)F)cccc12 |  | 0.0129 | 0.0158 |  | 0.0041 | 0.8 | 1 | 2400 | 6.9 | 534 | 1430 | 18.5 | 333 | 31 | 0.0041 | 4.3 | 
CCCCCCCNC[C@@H](O)c1cc(C(F)(F)F)nc2c(C(F)(F)F)cccc12 | 5.3 |  |  | 65 |  |  |  |  |  |  |  |  |  |  |  |  | IC50 [22]: 7 µM
COC[C@H](Cc1ccccc1)NC[C@H](O)c1cc(C(F)(F)F)nc2c(C(F)(F)F)cccc12 |  | 0.0232 | 0.0154 |  | 0.0114 | 1.5 | 1.5 | 1620 | 16.9 | 728 | 1580 | 36.7 | 414 | 37.6 | 0.0174 | 9.6 | 
O[C@H](CNCCNC(c1ccccc1)c1ccccc1)c1cc(C(F)(F)F)nc2c(C(F)(F)F)cccc12 |  | 0.0239 | 0.0141 |  | 0.0296 | 1.7 | 1.2 | 377 | 8.9 | 372 | 694 | 16.6 | 268 | 9 | 0.0352 | 6.4 | 
O[C@@H](CNCCNC(c1ccccc1)c1ccccc1)c1cc(C(F)(F)F)nc2c(C(F)(F)F)cccc12 |  | 0.0498 | 0.0207 |  | 0.034 | 2.4 | 1.05 | 233 | 5 | 100 | 881 | 43.9 | 177 | 11.6 | 0.0358 | 8.8 | 
O[C@H](CNCCCC(F)(F)F)c1cc(C(F)(F)F)nc2c(C(F)(F)F)cccc12 |  | 0.0154 | 0.0182 |  | 0.00855 | 0.85 | 1.3 | 2560 | > 125 | > 8120 | 2310 | 35.6 | 493 | 39.5 | 0.0114 | 7.6 | 
O[C@@H](CNCCCC(F)(F)F)c1cc(C(F)(F)F)nc2c(C(F)(F)F)cccc12 |  | 0.227 | 0.229 |  | 0.061 | 1 | 0.9 | 199 | 32.8 | 144 | 64 | 14.6 | 130 | 45.4 | 0.0576 | 29.7 | 
CCCCCCCNC[C@H](O)c1cc(C(F)(F)F)nc2c(C(F)(F)F)cccc12 | 0.5 |  |  | 90 |  |  |  |  |  |  |  |  |  |  |  |  | IC50 [22]: > 30 µM
OC[C@H](Cc1ccccc1)NC[C@@H](O)c1cc(C(F)(F)F)nc2c(C(F)(F)F)cccc12 |  | 0.0581 | 0.0394 |  | 0.0056 | 1.5 | 5.4 | 511 | 7.2 | 124 | 437 | 25.4 | 188 | 29.7 | 0.0302 | 10.9 | 
CCCCCNC[C@H](O)c1cc(C(F)(F)F)nc2c(C(F)(F)F)cccc12 | 3.7 |  |  | 86 |  |  |  |  |  |  |  |  |  |  |  |  | IC50 [22]: 5.6 µM
